# Laboratory results published in US20100298252A1, “METHODS AND COMPOSITIONS FOR OPHTHALMIC TREATMENT OF FUNGAL AND BACTERIAL INFECTIONS” (priority 2004, published 2010).
# “And” between values parts separate entries of the source, which are not always exact repeats. Equal entries are not always repeated.
# What was measured:
# Format in all cases: cell-based
# Staphylococcus aureus [1] = experiment: Antibiotic resistance profile by disc diffusion; parameters: key: R = resistant; I = intermediate; S = sensitive; conditions: disc diffusion on MHA
# Experimental: (§1) The organisms of this study were isolated from human burn patients. They included strains of methicillin resistant Staphylococcus aureus, and vancomycin resistant strains of Pseudomonas aeruginosa and Enterococcus faecalis. The bacterial isolates were propagated in or on Brain Heart Infusion broth (BHI), Mueller-Hinton Broth (MHB), blood agar (BA), Mueller-Hinton agar (MHA), enterococcus agar (EA), or 2× nutrient agar (2×NA).
# (§2) Antibiotic resistance profiles were determined by the disc diffusion method on MHA (5).
# Enterococcus faecalis [2] = experiment: Antibiotic resistance profile by disc diffusion; parameters: key: R = resistant; I = intermediate; S = sensitive; conditions: disc diffusion on MHA
# Experimental: as §1, §2
# Pseudomonas aeruginosa [3] = experiment: Antibiotic resistance profile by disc diffusion; parameters: key: R = resistant; I = intermediate; S = sensitive; conditions: disc diffusion on MHA
# Experimental: as §1, §2
# Staphylococcus aureus [4] = experiment: MIC and FIC index, microtiter checkerboard / broth dilution; conditions: Staph. aureus; for MIC Individually Administered, antibiotic: antibiotic alone
# Experimental: (§3) Agents and Chem. 210-217. (1967) and Sparks et al., Vet. Res. Comm. 18, 241-249 (1994), incorporated herein by reference in their entireties. […] Then 0.05 ml of an 18-hour old culture of a test organism, containing 10^6 colony-forming units (CFU)/ml, was added to each well. Controls for the culture and media were included in each plate. Plates were covered and incubated at 37° Celsius for 18-24 hours. […] To generate isobolograms, FICs of the two test solutions were plotted individually on the x-axis and y-axis to determine the effect of combining the two test solutions on bacterial growth. A line that curves away from, the zero point and the coordinates indicates antagonism. […] A numerical score or fractional inhibitory concentration (FIC) index was determined. The FIC index is equal to the sum of the values of FIC for the individual drugs: […] Am. Soc. Microbiol. Williams and Wilkins, Baltimore 1970), incorporated herein by reference in its entirety. […] Ps. aeruginosa, and Ent. faecalis.
# Enterococcus faecalis [5] = experiment: as above; conditions: Ent. faecalis; for MIC Individually Administered, antibiotic: antibiotic alone
# Experimental: as §3
# Pseudomonas aeruginosa [6] = experiment: as above; conditions: Ps. aeruginosa; for MIC Individually Administered, antibiotic: antibiotic alone
# Experimental: as §3
# Staphylococcus aureus [7] = experiment: Minimal Bactericidal Concentration, broth-dilution microtiter; conditions: Staph. aureus
# Source text: (§4) 307 (pub: Am. Soc. Microbiol. Williams and Wilkins, Baltimore 1970), incorporated herein by reference in its entirety.
# Enterococcus faecalis [8] = experiment: as above
# Source text: as §4
# Pseudomonas aeruginosa [9] = experiment: as above; conditions: Ps. aeruginosa
# Source text: as §4
# [10] = neomycin co-administered with EDTA, 50 mM Tris
Molecule,Antibiotic resistance profile (Staphylococcus aureus [1]),Antibiotic resistance profile (Enterococcus faecalis [2]),Antibiotic resistance profile (Pseudomonas aeruginosa [3]),"MIC Individually Administered, antibiotic (Staphylococcus aureus [4]) [µg/mL]","MIC Individually Administered, antibiotic (Enterococcus faecalis [5]) [µg/mL]","MIC Individually Administered, antibiotic (Pseudomonas aeruginosa [6]) [µg/mL]",other results
"CN[C@H](CC(C)C)C(=O)N[C@H]1C(=O)N[C@@H](CC(N)=O)C(=O)N[C@H]2C(=O)N[C@H]3C(=O)N[C@H](C(=O)N[C@H](C(=O)O)c4cc(O)cc(O)c4-c4cc3ccc4O)[C@H](O)c3ccc(c(Cl)c3)Oc3cc2cc(c3O[C@@H]2O[C@H](CO)[C@@H](O)[C@H](O)[C@H]2O[C@H]2C[C@](C)(N)[C@H](O)[C@H](C)O2)Oc2ccc(cc2Cl)[C@H]1O [Va, vancomycin]",S,R,R,,,,
"Cc1noc(NS(=O)(=O)c2ccc(N)cc2)c1C [G, sulfisoxazole]",S,R,R,,,,
"CCn1cc(C(=O)O)c(=O)c2ccc(C)nc21 [NA, nalidixic acid]",R,R,R,,,,
"CC1(C)S[C@@H]2[C@H](NC(=O)[C@H](N)c3ccccc3)C(=O)N2[C@H]1C(=O)O [Ampicillin, ampicillin]",R^B,S,R,240,1,490,
neomycin,R,R,R,3130,3130,1000,"Decrease of MBC value when EDTA and neomycin combined vs individually administered (Staphylococcus aureus [7]): about 50% and 50%; MBC Individually Administered (Staphylococcus aureus [7]; neomycin alone, 50 mM Tris): 3130 µg/mL; MBC Co-administered (Staphylococcus aureus [7]; [10]): 1560 µg/mL; MBC Individually Administered (Enterococcus faecalis [8]; En. faecalis, neomycin alone, 50 mM Tris): 25000 µg/mL; MBC Co-administered (Enterococcus faecalis [8]; En. faecalis, neomycin co-administered with EDTA, 50 mM Tris): 6250 µg/mL; Decrease of MBC value when EDTA and neomycin combined vs individually administered (Enterococcus faecalis [8]; Ent. faecalis): 75%; Decrease of MBC value when EDTA and neomycin combined vs individually administered (Pseudomonas aeruginosa [9]): 99.2%; MBC Individually Administered (Pseudomonas aeruginosa [9]; neomycin alone, 50 mM Tris): 5000 µg/mL; MBC Co-administered (Pseudomonas aeruginosa [9]; [10]): 40 µg/mL"
"O=C(O)CN(CCN(CC(=O)O)CC(=O)O)CC(=O)O [EDTA, ethylenediamenetetracetic acid]",,,,,,,"MIC Individually Administered, EDTA (Staphylococcus aureus [4]; EDTA alone in 50 mM Tris): 1000 µM; MIC Individually Administered, EDTA (Enterococcus faecalis [5]; EDTA alone in 50 mM Tris): 15630 µM; MIC Individually Administered, EDTA (Pseudomonas aeruginosa [6]; EDTA alone in 50 mM Tris): 1250 µM"
"NC[C@H]1O[C@H](O[C@H]2[C@H](O)[C@@H](O[C@H]3O[C@H](CO)[C@@H](O)[C@H](N)[C@H]3O)[C@H](N)C[C@@H]2N)[C@H](O)[C@@H](O)[C@@H]1O [K, kanamycin]",R,R,R,,,,
"NCC[C@H](O)C(=O)N[C@@H]1C[C@H](N)[C@@H](O[C@H]2O[C@H](CN)[C@@H](O)[C@H](O)[C@H]2O)[C@H](O)[C@H]1O[C@H]1O[C@H](CO)[C@@H](O)[C@H](N)[C@H]1O [Amikacin, amikacin]",,,,120,2000,1,
"CN(C)[C@@H]1C(O)=C(C(N)=O)C(=O)[C@@]2(O)C(O)=C3C(=O)c4c(O)cccc4[C@@](C)(O)[C@H]3C[C@@H]12 [Te, tetracycline]",S,R,R,,,,
"O=C(N[C@H](CO)[C@H](O)c1ccc([N+](=O)[O-])cc1)C(Cl)Cl [Chloramphenicol, chloramphenicol]",I,R,R,390,400,12500,
"CN(C)[C@@H]1C(O)=C(C(N)=O)C(=O)[C@@]2(O)C(O)=C3C(=O)c4c(O)cccc4[C@@](C)(O)[C@H]3[C@H](O)[C@@H]12 [Oxytetracycline, oxytetracycline]",,,,0.1,50,3,
"[H]/N=C(/N)N[C@H]1[C@H](O)[C@@H](O)[C@H](O[C@@H]2O[C@@H](C)[C@](O)(C=O)[C@H]2O[C@@H]2O[C@@H](CO)[C@H](O)[C@@H](O)[C@@H]2NC)[C@@H](N/C(N)=N\[H])[C@@H]1O [S, streptomycin]",S,R,R,,,,
